Measured values published in patent US4359531A, “Production of isomaltulose” (Talres Development (N.A.) N.V., priority 1979, dated 1982).

Test system: isomaltulose-synthesising activity of the immobilized cells
Test: Effect of chloramphenicol in the sucrose substrate on immobilized cells
Type: cell-based, Erwinia rhapontici
Details: 0.1 g/l in 55% (w/v) sucrose
Text: This hypothesis was confirmed when 0.1 g/l of chloramphenicol, which inhibits protein synthesis, was included in the 55% (w/v) sucrose used as substrate.

In the case of `O=C(N[C@H](CO)[C@H](O)c1ccc([N+](=O)[O-])cc1)C(Cl)Cl` [chloramphenicol], the “isomaltulose-synthesising activity in presence of chloramphenicol” value was “unaffected” and the “cell division in presence of chloramphenicol” value (even when nutrients supplied) was “no cell division took place”.
